Reference: ChEMBL document CHEMBL1152169, “Synthesis and structure-activity relationships of selective norepinephrine reuptake inhibitors (sNRI) with improved pharmaceutical characteristics” (Bioorg Med Chem Lett, 2008)
Calls of active or inactive are those of the source. The calls are words filed in the database; no cut-off is given here.

Biological target: Sodium-dependent dopamine transporter (Homo sapiens, UniProt Q01959)
Assay: Inhibition of dopamine uptake at human dopamine transporter

SMILES | Activity
CNC[C@]1(O)Cc2ccccc2[C@@H]1Oc1cc(F)ccc1C | inactive
CNC[C@]1(O)Cc2ccccc2[C@@H]1Oc1c(C)cccc1F | inactive
Cc1ccccc1O[C@H]1c2ccccc2C[C@@]1(O)CN | inactive
CNC[C@]1(O)Cc2ccccc2[C@@H]1Oc1cccc(F)c1C | inactive
CNC[C@]1(O)Cc2ccccc2[C@@H]1Oc1ccccc1OC | inactive
CNC[C@]1(O)Cc2ccccc2[C@@H]1Oc1ccccc1C | inactive
CNC[C@]1(O)Cc2ccccc2[C@@H]1Oc1ccccc1Cl | inactive
CNC[C@]1(O)Cc2ccccc2[C@@H]1Oc1ccccc1-c1cccc2ccccc12 | inactive
CNC[C@]1(O)Cc2ccccc2[C@@H]1Oc1ccc(C)cc1C | inactive
CNC[C@]1(O)Cc2ccccc2[C@@H]1Oc1ccccc1F | inactive
CNC[C@@]1(O)Cc2ccccc2[C@H]1Oc1ccccc1C | inactive
CNC[C@]1(O)Cc2ccccc2[C@@H]1Oc1ccc(O)cc1C | inactive
CNC[C@]1(O)Cc2ccccc2[C@@H]1Oc1cccc(C)c1C | inactive
CNCC1(O)Cc2ccccc2C1Cc1ccccc1C (racemic) | inactive
CCNCC1(O)Cc2ccccc2C1Oc1ccccc1C (racemic) | inactive
CNC[C@]1(OC)Cc2ccccc2[C@@H]1Oc1ccccc1C | inactive
Cc1ccccc1OC1c2ccccc2CC1(O)CN (racemic) | inactive
CNC[C@]1(O)Cc2ccccc2[C@@H]1Oc1ccccc1CO | inactive
Cc1ccccc1OC1c2ccccc2CC1(O)CNCCO (racemic) | inactive
CNC[C@@H]1Cc2ccccc2[C@@H]1Oc1ccccc1C | inactive
CNCC1(O)Cc2ccccc2C1Oc1ccccc1C (racemic) | inactive
CNC[C@]1(O)Cc2ccccc2[C@@H]1Oc1cccc(O)c1C | inactive
CNCC1(O)Cc2ccccc2C1Sc1ccccc1C (racemic) | inactive
CNC[C@]1(O)Cc2ccccc2[C@@H]1Oc1ccccc1SC | inactive
CCc1ccccc1O[C@H]1c2ccccc2C[C@@]1(O)CNC | inactive
CNC[C@]1(O)Cc2ccccc2[C@@H]1Oc1ccc(F)cc1C | inactive
